From US6130228A, “Polycyclic compounds” (priority 1995, dated 2000) come the findings set out here.

T2 sequence (P81908 whole entry): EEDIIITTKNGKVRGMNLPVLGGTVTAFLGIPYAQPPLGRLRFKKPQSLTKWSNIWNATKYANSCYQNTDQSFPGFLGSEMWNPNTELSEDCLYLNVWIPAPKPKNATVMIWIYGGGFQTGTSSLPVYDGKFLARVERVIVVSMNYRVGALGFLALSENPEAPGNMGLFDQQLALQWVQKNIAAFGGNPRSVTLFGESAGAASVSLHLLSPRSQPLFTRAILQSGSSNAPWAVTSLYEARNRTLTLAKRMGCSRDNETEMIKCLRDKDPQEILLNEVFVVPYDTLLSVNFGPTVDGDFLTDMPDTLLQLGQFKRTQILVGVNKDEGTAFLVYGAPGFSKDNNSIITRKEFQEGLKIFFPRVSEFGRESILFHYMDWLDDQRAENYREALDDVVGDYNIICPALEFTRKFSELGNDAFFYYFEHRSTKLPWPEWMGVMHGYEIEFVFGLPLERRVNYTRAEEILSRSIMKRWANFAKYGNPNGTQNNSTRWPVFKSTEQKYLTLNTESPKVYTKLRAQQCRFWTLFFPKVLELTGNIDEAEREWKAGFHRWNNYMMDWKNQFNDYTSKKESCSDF

The target of the first assay is T1, Acetylcholinesterase (AChE) (Rattus norvegicus, UniProt P37136).
T1 construct: The brain was removed and homogenised; from tissue; host or cells: rat brain (male Sprague Dawley), Triton X100 detergent supernatant of the EDTA-buffer pellet
T1 sequence (P37136 32-614): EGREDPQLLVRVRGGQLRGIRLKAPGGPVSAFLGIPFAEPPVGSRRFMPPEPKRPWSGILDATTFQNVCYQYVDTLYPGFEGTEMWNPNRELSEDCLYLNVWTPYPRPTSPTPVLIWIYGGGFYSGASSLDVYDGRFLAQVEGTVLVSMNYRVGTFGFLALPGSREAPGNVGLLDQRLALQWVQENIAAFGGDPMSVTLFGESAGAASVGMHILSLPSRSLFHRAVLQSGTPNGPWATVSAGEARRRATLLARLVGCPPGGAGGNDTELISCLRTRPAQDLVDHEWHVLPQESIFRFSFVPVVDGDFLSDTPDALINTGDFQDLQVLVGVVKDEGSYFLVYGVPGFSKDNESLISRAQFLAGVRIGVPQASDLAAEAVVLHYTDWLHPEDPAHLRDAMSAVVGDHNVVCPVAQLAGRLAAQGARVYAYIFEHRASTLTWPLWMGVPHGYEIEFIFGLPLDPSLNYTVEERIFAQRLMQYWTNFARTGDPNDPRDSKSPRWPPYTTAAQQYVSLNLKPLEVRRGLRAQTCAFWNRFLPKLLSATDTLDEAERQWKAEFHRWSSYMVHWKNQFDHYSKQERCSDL
As to the kind of experiment: biochemical. The assay is classed as biochemical, Male Rats (Sprague Dawley), brain.
Details: not given
As to the method:
(i) Enzyme Source for AChE
5 Male Rats (Sprague Dawley) weighing approx 250 g were killed by CO2 overdose and cervical dislocation.
The brain was removed and homogenised (9 strokes at 840 rpm with 4 volumes of phosphate buffer pH 7.4+10 mM (EDTA) and centrifuged at 27,000 g for 30 minutes.
The supernatant was discarded and the pellet resuspended in phosphate buffer with 10 mM EDTA+1- Triton X100 (2 ml/g wet weight). The crude homogenate was centrifuged at 27,000 g for 30-40 minutes.
The pellet was discarded and the supernatant was dispensed into 0.5 ml aliquots and stored at -20° C. until required.
Phosphate Buffer (0.1M. pH 7.4)
Made up to 500 ml with distilled H2 O, pH 7.4.
0.5 ml aliquots of brain (enzyme solution) as prepared above were thawed out. 2 ml of phosphate buffer was added to each aliquot. 2 ml of the enzyme solution was incubated with 2 ml PDS for 60 minutes at 0° C. The composition of blank, control and test solutions are given below:
0.9 ml phosphate buffer (0.1 M, pH 7.4)
0.85 ml phosphate buffer (0.1M, pH 7.4)
0.05 ml acetylthiocholine (5.2 mM)
(§1) 0.8 ml phosphate buffer (0.1M, pH 7.4)
0.05 ml Acetylthiocholine 5.2 mM
Change in absorbance was measured at 30 second intervals for 3 minutes at […]. The control was taken as 100%. Inhibitor was calculated as a percentage of the control. A graph of Log of inhibitor conc. versus % control was plotted and IC5. values calculated by interpolation.
In the case of `Nc1c2c(nc3ccc(F)cc13)CCC2` [Compound 11, 9-Amino-7-fluoro-2,3-dihydro-1H-cyclopenta-[b] quinoline], the “AChE TACRINE RATIO” value is 0.650.
Same read-out and setting: to `Nc1c2c(nc3ccc(F)cc13)CCCC2` [Compound 18, 9-Amino-7-fluoro-1,2,3,4-tetrahydro-acridine] belongs 0.390; to `Cc1ccc(C)c2c(N)c3c(nc12)CCC3` [Compound 20, 9-Amino-5,8-dimethyl-2,3-dihydro-1H -cyclopenta [1,2-b] quinoline], 0.041; to `Cc1cccc2c(N)c3c(nc12)CCC3` [Compound 21, 9-Amino-5-methyl-2.3-dihydro-1H -cyclopenta[1,2-b] quinoline], 0.024.
For `Cc1cc(C)c2nc3c(c(N)c2c1)CCC3` [Compound 23, 9-Amino-5-7-Dimethyl-2,3-dihydro-1H-cyclopenta [1,2-b] quinoline], the “AChE TACRINE RATIO” value was 0.004.
The same measure, in the same setting: to `Cc1ccc2nc3c(c(N)c2c1)CCC3` [Compound 24, 9-Amino-7-methyl-2,3-dihydro-1H-cyclopenta [1,2-b] quinoline] belongs 0.012; to `Nc1c2c(nc3ccc(Br)cc13)CCC2` [Compound 25, 9-Amino-7-bromo-2,3-dihydro-1H-cyclopenta-[1,2-b] quinoline], 0.008; to `Cc1ccc2c(N)c3c(nc2c1C)CCC3` [Compound 26, 9-Amino-5,6-dimethyl-2,3-dihydro-1H-cyclopenta [1,2-b] quinoline], 0.007.

The same assay, now with this note: Table 2; read-out: AChE IC50.
Turning to `Nc1c2c(nc3ccc(F)cc13)CCC2` [Compound 11, 9-Amino-7-fluoro-2,3-dihydro-1H-cyclopenta-[b] quinoline], the IC50 was found to be 0.12 µM.
On the same count and under the same terms, to `Nc1c2c(nc3ccc(F)cc13)CCCC2` [Compound 18, 9-Amino-7-fluoro-1,2,3,4-tetrahydro-acridine] belongs 0.2 µM.
Consider `Cc1ccc(C)c2c(N)c3c(nc12)CCC3` [Compound 20, 9-Amino-5,8-dimethyl-2,3-dihydro-1H -cyclopenta [1,2-b] quinoline], for which the IC50 stood at 1.9 µM.
On the same count and under the same terms, to `Cc1cccc2c(N)c3c(nc12)CCC3` [Compound 21, 9-Amino-5-methyl-2.3-dihydro-1H -cyclopenta[1,2-b] quinoline] belongs 3.3 µM.
With `Cc1cc(C)c2nc3c(c(N)c2c1)CCC3` [Compound 23, 9-Amino-5-7-Dimethyl-2,3-dihydro-1H-cyclopenta [1,2-b] quinoline], the IC50 was 19 µM.
For the molecule `Cc1ccc2nc3c(c(N)c2c1)CCC3` [Compound 24, 9-Amino-7-methyl-2,3-dihydro-1H-cyclopenta [1,2-b] quinoline], the IC50 is 6.7 µM.
As for `Nc1c2c(nc3ccc(Br)cc13)CCC2` [Compound 25, 9-Amino-7-bromo-2,3-dihydro-1H-cyclopenta-[1,2-b] quinoline], the IC50 amounted to 10 µM.
`Cc1ccc2c(N)c3c(nc2c1C)CCC3` [Compound 26, 9-Amino-5,6-dimethyl-2,3-dihydro-1H-cyclopenta [1,2-b] quinoline]: the IC50 worked out at 11.6 µM.

The subject of a further assay is noradrenaline (NA) uptake. As to the kind of experiment: Monoamine Uptake Inhibition Assay, noradrenaline (synaptosomal preparation). The assay is classed as biochemical, rat (Sprague Dawley).
Details: not given
As to the method:
(§2) One male rat (Sprague Dawley) weighing approx. 200-250 g was sacrificed by cervical dislocation. The brain was dissected out and the cerebellum discarded. The brain was then weighed and 10 ml ice cold sucrose (0.32M) added per gram tissue. […] The pellet was discarded and the supernatant retained (crude synaptosomal preparation).
(§3) All tubes were set up in triplicate. […] 100 μl of the prepared synaptosomal preparation was added to each tube and incubated for 5 minutes in a shaking water bath at 37° C. Any reaction was stopped by plunging the tubes into an ice water bath. ^3 H NA (10^-7 M) or ^3 H 5-HT ([…]) was added to each tube and incubated for 5 minutes in a shaking water bath at 37° C. Any reaction was stopped by plunging the tubes into an ice-water bath. Accumulated monoamines were collected using a Brandell Cell Harvester under mild vacuum. Filters were rinsed (2×) using 4 ml of ice-cold 0.9% saline. Scintillation fluid was added (4 ml/tube). Radioactivity was measured on a scintillation counter.
(§4) Non-specific values were subtracted from total values. The control was taken as 100%. Drug effects were calculated as a percentage of control inhibitor value. A graph of log of drug concentration versus % control was plotted and IC50 values were calculated by interpolation.
As to `Nc1c2c(nc3ccc(F)cc13)CCC2` [Compound 11, 9-Amino-7-fluoro-2,3-dihydro-1H-cyclopenta-[b] quinoline], the “NA UPTAKE INHIBITION TACRINE RATIO” value is reported as 0.558.

The assay is the same for the next values; noted with them: Table 3; read-out: NA UPTAKE INHIBITION
Turning to `Nc1c2c(nc3ccc(F)cc13)CCC2` [Compound 11, 9-Amino-7-fluoro-2,3-dihydro-1H-cyclopenta-[b] quinoline], the IC50 is 12 µM.

In a further assay the test system is 5-HT (serotonin) uptake.
Assay: not given
The assay is classed as biochemical, rat (Sprague Dawley).
Details: not given
As to the method: as §2, §3, §4
As for `Nc1c2c(nc3ccc(F)cc13)CCC2` [Compound 11, 9-Amino-7-fluoro-2,3-dihydro-1H-cyclopenta-[b] quinoline], the “5-HT UPTAKE INHIBITION TACRINE RATIO” value came out at 2.054.
As to `Nc1c2c(nc3ccc(F)cc13)CCCC2` [Compound 18, 9-Amino-7-fluoro-1,2,3,4-tetrahydro-acridine], the “5-HT UPTAKE INHIBITION TACRINE RATIO” value came out at 3.304.
On the same count and under the same terms, to `Cc1ccc(C)c2c(N)c3c(nc12)CCC3` [Compound 20, 9-Amino-5,8-dimethyl-2,3-dihydro-1H -cyclopenta [1,2-b] quinoline] belongs 1.949.
The same measure, in the same setting: to `Cc1cccc2c(N)c3c(nc12)CCC3` [Compound 21, 9-Amino-5-methyl-2.3-dihydro-1H -cyclopenta[1,2-b] quinoline] belongs 0.633; to `Cc1cc(C)c2nc3c(c(N)c2c1)CCC3` [Compound 23, 9-Amino-5-7-Dimethyl-2,3-dihydro-1H-cyclopenta [1,2-b] quinoline], 0.962.
The same measure, in the same setting: to `Cc1ccc2nc3c(c(N)c2c1)CCC3` [Compound 24, 9-Amino-7-methyl-2,3-dihydro-1H-cyclopenta [1,2-b] quinoline] belongs 0.447; to `Nc1c2c(nc3ccc(Br)cc13)CCC2` [Compound 25, 9-Amino-7-bromo-2,3-dihydro-1H-cyclopenta-[1,2-b] quinoline], 1.434; to `Cc1ccc2c(N)c3c(nc2c1C)CCC3` [Compound 26, 9-Amino-5,6-dimethyl-2,3-dihydro-1H-cyclopenta [1,2-b] quinoline], 1.727.

Staying with this assay, now noted: Table 3; read-out: 5-HT UPTAKE INHIBITION
For `Nc1c2c(nc3ccc(F)cc13)CCC2` [Compound 11, 9-Amino-7-fluoro-2,3-dihydro-1H-cyclopenta-[b] quinoline], the IC50 stood at 3.7 µM.
For `Nc1c2c(nc3ccc(F)cc13)CCCC2` [Compound 18, 9-Amino-7-fluoro-1,2,3,4-tetrahydro-acridine], the IC50 turned out to be 2.3 µM.
On the same count and under the same terms, to `Cc1ccc(C)c2c(N)c3c(nc12)CCC3` [Compound 20, 9-Amino-5,8-dimethyl-2,3-dihydro-1H -cyclopenta [1,2-b] quinoline] belongs 3.9 µM; to `Cc1cccc2c(N)c3c(nc12)CCC3` [Compound 21, 9-Amino-5-methyl-2.3-dihydro-1H -cyclopenta[1,2-b] quinoline], 12 µM; to `Cc1cc(C)c2nc3c(c(N)c2c1)CCC3` [Compound 23, 9-Amino-5-7-Dimethyl-2,3-dihydro-1H-cyclopenta [1,2-b] quinoline], 7.9 µM.
For `Cc1ccc2nc3c(c(N)c2c1)CCC3` [Compound 24, 9-Amino-7-methyl-2,3-dihydro-1H-cyclopenta [1,2-b] quinoline], the IC50 is 17 µM.
For the molecule `Nc1c2c(nc3ccc(Br)cc13)CCC2` [Compound 25, 9-Amino-7-bromo-2,3-dihydro-1H-cyclopenta-[1,2-b] quinoline], the IC50 stood at 5.3 µM.
Consider `Cc1ccc2c(N)c3c(nc2c1C)CCC3` [Compound 26, 9-Amino-5,6-dimethyl-2,3-dihydro-1H-cyclopenta [1,2-b] quinoline], for which the IC50 amounted to 4.4 µM.

A further assay has as its target T2, Butyrylcholinesterase (BChE) (Equus caballus, UniProt P81908).
T2 construct: purchased Sigma c-7512
As to the kind of experiment: biochemical.
Details: not given
As to the method: The following components were utilised:
Phosphate Buffer (0.1M, pH 7.4)
Made up to 500 ml with distilled H2 O, pH 7.4
1 ml of enzyme solution (i), was incubated with 2 ml PDS for 60 minutes at 0° C.
Components of the assay blank, controls and test solutions are provided below:
0.9 ml phosphate buffer (0.1M, pH 7.4)
0.85 ml phosphate buffer (0.1 M, pH 7.4)
0.05 ml Acetylthiocholine (5.2 mM)
as §1
Control was taken as 100%. Inhibitor was calculated as a percentage of control. A graph of Log of inhibitor conc. versus % control was plotted and IC50 values calculated by interpolation.
For `Nc1c2c(nc3ccc(F)cc13)CCC2` [Compound 11, 9-Amino-7-fluoro-2,3-dihydro-1H-cyclopenta-[b] quinoline], the “BChE TACRINE RATIO” value is recorded as 0.033.
For the molecule `Nc1c2c(nc3ccc(F)cc13)CCCC2` [Compound 18, 9-Amino-7-fluoro-1,2,3,4-tetrahydro-acridine], the “BChE TACRINE RATIO” value worked out at 0.061.
The same measure, in the same setting: to `Cc1ccc(C)c2c(N)c3c(nc12)CCC3` [Compound 20, 9-Amino-5,8-dimethyl-2,3-dihydro-1H -cyclopenta [1,2-b] quinoline] belongs 0.018; to `Cc1cccc2c(N)c3c(nc12)CCC3` [Compound 21, 9-Amino-5-methyl-2.3-dihydro-1H -cyclopenta[1,2-b] quinoline], 0.002; to `Cc1ccc2nc3c(c(N)c2c1)CCC3` [Compound 24, 9-Amino-7-methyl-2,3-dihydro-1H-cyclopenta [1,2-b] quinoline], 0.023.
Same read-out and setting: to `Nc1c2c(nc3ccc(Br)cc13)CCC2` [Compound 25, 9-Amino-7-bromo-2,3-dihydro-1H-cyclopenta-[1,2-b] quinoline] belongs 0.013; to `Cc1ccc2c(N)c3c(nc2c1C)CCC3` [Compound 26, 9-Amino-5,6-dimethyl-2,3-dihydro-1H-cyclopenta [1,2-b] quinoline], 0.003.

The same assay, now with this note: Table 2; read-out: BChE IC50.
For `Nc1c2c(nc3ccc(F)cc13)CCC2` [Compound 11, 9-Amino-7-fluoro-2,3-dihydro-1H-cyclopenta-[b] quinoline], the IC50 was 0.75 µM.
For `Nc1c2c(nc3ccc(F)cc13)CCCC2` [Compound 18, 9-Amino-7-fluoro-1,2,3,4-tetrahydro-acridine], the IC50 came to 0.41 µM.
Still for that read-out and setting: to `Cc1ccc(C)c2c(N)c3c(nc12)CCC3` [Compound 20, 9-Amino-5,8-dimethyl-2,3-dihydro-1H -cyclopenta [1,2-b] quinoline] belongs 1.4 µM.
The same measure, in the same setting: to `Cc1cccc2c(N)c3c(nc12)CCC3` [Compound 21, 9-Amino-5-methyl-2.3-dihydro-1H -cyclopenta[1,2-b] quinoline] belongs 13.8 µM; to `Cc1cc(C)c2nc3c(c(N)c2c1)CCC3` [Compound 23, 9-Amino-5-7-Dimethyl-2,3-dihydro-1H-cyclopenta [1,2-b] quinoline], 52 µM.
For `Cc1ccc2nc3c(c(N)c2c1)CCC3` [Compound 24, 9-Amino-7-methyl-2,3-dihydro-1H-cyclopenta [1,2-b] quinoline], the IC50 stood at 1.1 µM.
For `Nc1c2c(nc3ccc(Br)cc13)CCC2` [Compound 25, 9-Amino-7-bromo-2,3-dihydro-1H-cyclopenta-[1,2-b] quinoline], the IC50 came to 1.9 µM.
As to `Cc1ccc2c(N)c3c(nc2c1C)CCC3` [Compound 26, 9-Amino-5,6-dimethyl-2,3-dihydro-1H-cyclopenta [1,2-b] quinoline], the IC50 stood at 9.2 µM.
